Data taken from ChEMBL document CHEMBL1201862, “PubChem BioAssay data set” (2004).
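Assay format: 96-well plates, 48-hour exposure. GI50 = concentration required for 50% inhibition of growth.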 Activity calls are given as the source filed them. No stated cut-off is given here; in the data, active = GI50 up to about 1.1 µM and inactive = higher.

Experiments:
Test in all cases: DTP human tumour cell line panel, 48 h
SN12C = test system: SN12C
MCF7 = test system: MCF7
MOLT-4 = test system: MOLT-4
NCI-H522 = test system: NCI-H522
T47D = test system: T47D
OVCAR-8 = test system: OVCAR-8
KM12 = test system: KM12
RPMI-8226 = test system: RPMI-8226
OVCAR-4 = test system: OVCAR-4
HL-60 = test system: HL-60
NCI-H23 = test system: NCI-H23
A549 = test system: A549
BT-549 = test system: BT-549
786-0 = test system: 786-0
CCRF-CEM = test system: CCRF-CEM
RXF 393 = test system: RXF 393
NCI/ADR-RES = test system: NCI/ADR-RES
Hs-578T = test system: Hs-578T
HCT-116 = test system: HCT-116
SK-MEL-2 = test system: SK-MEL-2
MDA-N = test system: MDA-N
TK-10 = test system: TK-10
LOX IMVI = test system: LOX IMVI
SF-295 = test system: SF-295
IGROV-1 = test system: IGROV-1
SK-OV-3 = test system: SK-OV-3
UACC-62 = test system: UACC-62
UO-31 = test system: UO-31
ACHN = test system: ACHN
HOP-92 = test system: HOP-92
SNB-19 = test system: SNB-19
SK-MEL-5 = test system: SK-MEL-5
K562 = test system: K562
M14 = test system: M14
SK-MEL-28 = test system: SK-MEL-28
HOP-62 = test system: HOP-62
SF-268 = test system: SF-268
DU-145 = test system: DU-145
Malme-3M = test system: Malme-3M
HCT-15 = test system: HCT-15
SR = test system: SR
SF-539 = test system: SF-539
PC-3 = test system: PC-3
MDA-MB-231 = test system: MDA-MB-231
SW-620 = test system: SW-620
UACC-257 = test system: UACC-257
SNB-75 = test system: SNB-75
NCI-H460 = test system: NCI-H460
COLO 205 = test system: COLO 205
U-251 = test system: U-251

In the case of Cc1ccc(S(=O)(=O)NC(=O)NC(CCCCNC(=N)N)C(=O)O)cc1 (stereo not given), the GI50 (SN12C) is reported as > 100 µM (inactive), the GI50 (MCF7) is reported as > 100 µM (inactive) and the GI50 (MOLT-4) is reported as > 100 µM (inactive). The GI50 (NCI-H522) was > 100 µM (inactive), the GI50 (T47D) was > 100 µM (inactive) and the GI50 (OVCAR-8) was > 100 µM (inactive). For the same molecule, the GI50 (KM12) was > 100 µM (inactive), the GI50 (RPMI-8226) was > 100 µM (inactive) and the GI50 (OVCAR-4) was > 100 µM (inactive). For the same molecule, the GI50 (HL-60) was > 100 µM (inactive), the GI50 (NCI-H23) was > 100 µM (inactive) and the GI50 (A549) was > 100 µM (inactive). For the same molecule, the GI50 (BT-549) was > 100 µM (inactive), the GI50 (786-0) was > 100 µM (inactive) and the GI50 (CCRF-CEM) was > 100 µM (inactive). The GI50 (RXF 393) was > 100 µM (inactive), the GI50 (NCI/ADR-RES) was > 100 µM (inactive) and the GI50 (Hs-578T) was > 100 µM (inactive). The GI50 (HCT-116) was > 100 µM (inactive), the GI50 (SK-MEL-2) was > 100 µM (inactive) and the GI50 (MDA-N) was > 100 µM (inactive). The GI50 (TK-10) was > 100 µM (inactive), the GI50 (LOX IMVI) was > 100 µM (inactive) and the GI50 (SF-295) was > 100 µM (inactive). For the same molecule, the GI50 (IGROV-1) was > 100 µM (inactive), the GI50 (SK-OV-3) was > 100 µM (inactive) and the GI50 (UACC-62) was > 100 µM (inactive). For the same molecule, the GI50 (UO-31) was > 100 µM (inactive), the GI50 (ACHN) was > 100 µM (inactive) and the GI50 (HOP-92) was > 100 µM (inactive). The GI50 (SNB-19) was > 100 µM (inactive), the GI50 (SK-MEL-5) was > 100 µM (inactive) and the GI50 (K562) was > 100 µM (inactive). The GI50 (M14) was > 100 µM (inactive), the GI50 (SK-MEL-28) was > 100 µM (inactive) and the GI50 (HOP-62) was > 100 µM (inactive). For the same molecule, the GI50 (SF-268) was > 100 µM (inactive), the GI50 (DU-145) was > 100 µM (inactive) and the GI50 (Malme-3M) was > 100 µM (inactive). For the same molecule, the GI50 (HCT-15) was > 100 µM, the GI50 (SR) was > 100 µM (inactive) and the GI50 (SF-539) was > 100 µM (inactive). The GI50 (PC-3) was > 100 µM (inactive), the GI50 (MDA-MB-231) was > 100 µM (inactive) and the GI50 (SW-620) was > 100 µM (inactive). For the same molecule, the GI50 (UACC-257) was > 100 µM (inactive), the GI50 (SNB-75) was > 100 µM (inactive) and the GI50 (NCI-H460) was > 100 µM (inactive). The GI50 (COLO 205) was > 100 µM (inactive) and the GI50 (U-251) was > 100 µM (inactive).
